Results on three compounds are retold here after patent US10981905B2, “Heteroaryl-substituted sulfonamide compounds and their use as therapeutic agents” (Xenon Pharmaceuticals Inc., priority 2018, dated 2021).

Where a name gives a salt, the structure may show the parent alone.

Series [1] has as its target Nav1.1 (Homo sapiens (Human), UniProt P35498). The series is described as follows: Sodium Influx Assay (Flux), Nav1.1. It is filed as cell-based. The settings on record: Trex HEK293 cells, ANG2 dye, inactivated state.
Series [2] concerns the target Nav1.6 (Homo sapiens (Human), UniProt Q9UQD0). The series is described as follows: Sodium Influx Assay (Flux), Nav1.6. It is filed as cell-based. The settings on record: Trex HEK293 cells, ANG2 dye, inactivated state.
In series [3] the target is Nav1.5 (Homo sapiens (Human), UniProt Q14524).
Sequence of Nav1.5 (Q14524 other isoform, or with tags, fused parts or gaps): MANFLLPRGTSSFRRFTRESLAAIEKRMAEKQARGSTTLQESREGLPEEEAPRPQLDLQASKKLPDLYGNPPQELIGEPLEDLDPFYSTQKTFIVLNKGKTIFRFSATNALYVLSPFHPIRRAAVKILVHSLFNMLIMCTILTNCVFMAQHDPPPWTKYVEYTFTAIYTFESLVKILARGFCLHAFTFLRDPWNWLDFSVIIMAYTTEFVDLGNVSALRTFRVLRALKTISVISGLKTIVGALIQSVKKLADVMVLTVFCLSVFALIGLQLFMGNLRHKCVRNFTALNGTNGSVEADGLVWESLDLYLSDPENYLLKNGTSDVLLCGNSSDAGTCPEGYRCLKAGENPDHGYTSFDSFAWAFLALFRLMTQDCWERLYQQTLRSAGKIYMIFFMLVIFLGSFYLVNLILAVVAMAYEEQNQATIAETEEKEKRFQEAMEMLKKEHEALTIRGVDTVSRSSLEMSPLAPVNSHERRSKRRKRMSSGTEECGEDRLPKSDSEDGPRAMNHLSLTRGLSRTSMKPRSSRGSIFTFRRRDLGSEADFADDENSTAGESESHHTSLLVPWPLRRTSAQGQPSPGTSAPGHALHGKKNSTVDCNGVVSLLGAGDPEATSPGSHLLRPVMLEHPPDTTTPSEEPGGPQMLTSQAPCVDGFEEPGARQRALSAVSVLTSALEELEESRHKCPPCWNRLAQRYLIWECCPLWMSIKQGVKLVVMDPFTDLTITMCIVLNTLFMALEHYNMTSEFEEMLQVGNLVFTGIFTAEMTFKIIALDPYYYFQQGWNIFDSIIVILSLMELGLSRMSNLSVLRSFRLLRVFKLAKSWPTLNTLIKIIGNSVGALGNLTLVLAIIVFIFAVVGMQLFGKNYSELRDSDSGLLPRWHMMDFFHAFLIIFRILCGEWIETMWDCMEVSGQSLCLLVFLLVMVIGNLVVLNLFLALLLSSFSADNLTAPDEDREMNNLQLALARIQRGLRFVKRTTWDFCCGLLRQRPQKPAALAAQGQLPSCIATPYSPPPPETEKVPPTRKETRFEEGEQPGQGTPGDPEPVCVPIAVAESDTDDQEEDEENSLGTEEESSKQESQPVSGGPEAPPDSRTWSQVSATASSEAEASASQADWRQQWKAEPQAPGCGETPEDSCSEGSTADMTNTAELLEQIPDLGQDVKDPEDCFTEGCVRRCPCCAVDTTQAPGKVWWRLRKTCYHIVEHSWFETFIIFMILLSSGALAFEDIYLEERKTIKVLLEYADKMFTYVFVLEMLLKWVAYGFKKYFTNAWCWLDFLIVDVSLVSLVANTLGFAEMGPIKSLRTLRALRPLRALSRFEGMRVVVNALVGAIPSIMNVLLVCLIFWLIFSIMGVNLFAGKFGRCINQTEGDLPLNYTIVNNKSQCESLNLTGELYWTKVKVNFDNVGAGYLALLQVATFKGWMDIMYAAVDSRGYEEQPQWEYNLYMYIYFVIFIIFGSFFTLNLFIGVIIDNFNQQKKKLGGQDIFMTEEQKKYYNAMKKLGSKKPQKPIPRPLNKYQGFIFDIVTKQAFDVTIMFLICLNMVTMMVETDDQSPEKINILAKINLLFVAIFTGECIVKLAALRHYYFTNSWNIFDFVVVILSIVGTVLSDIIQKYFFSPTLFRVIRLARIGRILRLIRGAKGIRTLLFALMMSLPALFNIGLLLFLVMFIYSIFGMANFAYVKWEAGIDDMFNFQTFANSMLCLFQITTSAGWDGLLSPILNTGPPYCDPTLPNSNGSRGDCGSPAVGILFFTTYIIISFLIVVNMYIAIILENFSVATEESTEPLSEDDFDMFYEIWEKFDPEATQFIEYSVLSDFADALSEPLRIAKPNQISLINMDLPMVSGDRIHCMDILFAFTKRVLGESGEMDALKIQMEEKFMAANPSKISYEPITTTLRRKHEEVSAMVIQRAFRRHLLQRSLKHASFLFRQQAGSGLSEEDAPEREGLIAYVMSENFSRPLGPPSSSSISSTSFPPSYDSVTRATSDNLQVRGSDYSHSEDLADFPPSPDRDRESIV

With `Cc1nc(S(=O)(=O)Nc2cscn2)ccc1NCc1c(F)cccc1CN1C2CCC1CC2` [Example 25, 5-((2-((7-azabicyclo[2.2.1]heptan-7-yl)methyl)-6-fluorobenzyl)amino)-6-methyl-N-(thiazol-4-yl)pyridine-2-sulfonamide trifluoroacetic acid salt], the 50% inhibitory concentration (IC50) (commonly the concentration at which inhibition is half-maximal) in series [1] came out at 30 µM; in series [2], 0.154 µM; in series [3], 30 µM.

`Cc1nc(S(=O)(=O)Nc2cscn2)c(F)cc1NCc1c(F)cccc1CN1C2CCC1CC2` [Example 33, 5-((2-((azabicyclo[2.2.1]heptan-7-yl)methyl)-6-fluorobenzyl)amino)-3-fluoro-6-methyl-N-(thiazol-4-yl)pyridine-2-sulfonamide trifluoroacetic acid salt] had a 50% inhibitory concentration (IC50) in series [3] of 30 µM.

For `O=S(=O)(Nc1cscn1)c1ccc(NCc2c(F)cccc2CN2C3CCC2CC3)c(C(F)(F)F)n1` [Example 47, 5-((2-((7-azabicyclo[2.2.1]heptan-7-yl)methyl)-6-fluorobenzyl)amino)-N-(thiazol-4-yl)-6-(trifluoromethyl)pyridine-2-sulfonamide trifluoroacetic acid salt], the half-inhibitory concentration (IC50) stood at 13.6 µM in series [1], 0.021 µM in series [2] and 30 µM in series [3].
